The values below come from PMC4215196 (Journal of nuclear medicine : official publication, Society …, 2009).

One series concerns B16F10 melanoma. In words: Biodistribution in subcutaneous B16F10 tumor bearing mice.
The test system of series [1] is B16F10 melanoma lung metastases. In words: µPET ROI analysis, B16F10 lung metastases model. To be noted: lungs harboring metastasis.
In a further series the test system is B16F10 cells. In words: In vitro cell uptake in B16F10 cells.
The nature of series [2]: In vitro stability in mouse serum. It counts as in vitro ADME. Particulars: for percentage of intact probe: 37°C.
Series [3] is described as follows: µPET ROI analysis, normal lung.
A further series relates to A375M tumors. Particulars: µPET.
In series [4] the test system is B16F10 pulmonary metastases. In words: Biodistribution in B16F10 lung metastases bearing mice. To be noted: 2 h p.i.
The subject of another series is B16 melanoma. Particulars: C57BL6 mice bearing B16 melanoma, 24 h; cited from earlier work.
Setting [5] is: subcutaneous B16F10 tumor bearing mice, 2 h p.i.

`CCN(CC)CCNC(=O)c1ccc([18F])cc1` [^18F-FBZA, ^18F-N-[2-(diethylamino)ethyl]-4-fluoro-Benzamide]: the “tumor to brain ratio” value in the series on B16F10 melanoma (B16F10 model, 1 h) is given as 5.14 ± 1.10. Moreover, the lung-to-blood ratio with B16F10 melanoma (B16F10 subcutaneous tumor bearing mice, 2 h) turned out to be 4.72 ± 0.46. Further, the “Uptake Ratio Tumor / Blood” value with B16F10 melanoma (setting [5]) is recorded as 34.0 ± 13.2. The “Uptake Ratio Tumor / Muscle” value in the series with B16F10 melanoma (setting [5]) was 23.3 ± 10.1. Also, the results for the “lung uptake, µPET ROI analysis” value in series [1] (tumor dose 0.4 × 10^6 B16F10 cells), in series [1] (tumor dose 0.8 × 10^6 B16F10 cells) and in series [3] were 9.0 ± 0.4 %ID/g, 15.3 ± 1.1 %ID/g and 1.2 ± 0.2 %ID/g, respectively. Moreover, the cellular accumulation was determined as 4.5 ± 0.5% with B16F10 cells (B16F10 cells pretreated with L-tyrosine (2.0 mM) 24 h, 4°C, 30 minutes); 0.49 ± 0.03% with B16F10 cells (non-treated B16F10 cells, 2-hour incubation, 4 °C); 0.52 ± 0.1% with B16F10 cells (non-treated B16F10 cells, 2-hour incubation, 37 °C). In the series with B16F10 cells (B16F10 cells pretreated with L-tyrosine (2.0 mM) 24 h, 37°C, 30 minutes), the cell uptake is 10.7 ± 0.8%. Also, the “uptake at 4°C less than cellular uptake at 37°C” value in the series on B16F10 cells (tyrosine stimulated B16F10 cells, 30 minutes) was determined as 58%. Besides, the “fold increase of uptake compared to non-treated B16F10 cells” value in the series with B16F10 cells (tyrosine stimulated cells, 37°C) is recorded as 18–25 fold. The “percentage of intact probe” value in series [2] (30 min incubation) is listed as 94.1%; in series [2] (60 min incubation) it was 93.5%; in series [2] (120 min incubation), 87.8%; in series [2] (150 min incubation) it was 85.1%. Besides, the Defluorination entry in series [2] (up to 150 min) is reported as “not observed”. Moreover, in the series on A375M tumors, the “tumor uptake, PET ROI analysis” value is on record as 0.86 ± 0.03 %ID/g. Further, the “Uptake Ratio Lung / Blood” value in series [4] (lung metastases from 0.2 × 10^6 B16F10 cells) is on record as 24.7 ± 13.5; in series [4] (lung metastases from 0.4 × 10^6 B16F10 cells), 38.9 ± 10.3.

As for `CCN(CC)CCNC(=O)c1ccc([125I])cc1` [^125I-BZA, N-(2-diethylaminoethy1)-4-^125I-iodo-benzamide], the tumor-to-blood ratio in the series on B16 melanoma is recorded as 37.3 ± 6.9.
